The record followed here is ChEMBL document CHEMBL3621051, “Design and synthesis of 4-benzyl-1-(2H)-phthalazinone derivatives as novel androgen receptor antagonists” (Eur J Med Chem, 2015).

Sequence of Androgen receptor (Mus musculus) (P19091 whole entry, looked up): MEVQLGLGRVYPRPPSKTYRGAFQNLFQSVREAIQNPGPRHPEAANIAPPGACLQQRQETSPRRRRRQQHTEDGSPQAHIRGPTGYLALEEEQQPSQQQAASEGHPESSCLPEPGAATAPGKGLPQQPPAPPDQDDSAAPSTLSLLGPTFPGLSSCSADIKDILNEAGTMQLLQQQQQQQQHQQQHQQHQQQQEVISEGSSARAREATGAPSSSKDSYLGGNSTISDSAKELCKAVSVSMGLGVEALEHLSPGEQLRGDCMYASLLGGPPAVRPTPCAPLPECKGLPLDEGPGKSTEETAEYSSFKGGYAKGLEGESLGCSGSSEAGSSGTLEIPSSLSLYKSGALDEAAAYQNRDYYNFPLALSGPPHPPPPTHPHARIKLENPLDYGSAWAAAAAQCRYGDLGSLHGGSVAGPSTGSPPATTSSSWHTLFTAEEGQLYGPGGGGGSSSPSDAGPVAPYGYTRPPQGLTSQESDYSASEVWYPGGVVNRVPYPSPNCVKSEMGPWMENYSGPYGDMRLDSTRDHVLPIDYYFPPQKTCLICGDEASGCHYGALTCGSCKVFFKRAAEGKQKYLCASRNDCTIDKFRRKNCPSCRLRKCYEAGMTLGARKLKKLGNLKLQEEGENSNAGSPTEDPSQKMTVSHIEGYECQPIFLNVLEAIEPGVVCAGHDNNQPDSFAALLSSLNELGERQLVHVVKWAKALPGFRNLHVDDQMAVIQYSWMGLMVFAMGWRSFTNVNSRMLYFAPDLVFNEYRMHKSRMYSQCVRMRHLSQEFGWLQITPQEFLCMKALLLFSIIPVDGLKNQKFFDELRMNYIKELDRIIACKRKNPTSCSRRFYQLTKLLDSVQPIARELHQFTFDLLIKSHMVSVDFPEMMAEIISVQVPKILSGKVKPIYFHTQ

The test addresses Androgen receptor (Mus musculus) (UniProt P19091). Kind of test: Antagonist activity at wild type AR expressed in mouse SC-3 cells assessed as inhibition of 1 nM DHT-induced cell proliferation after 3 days by WST-8 assay.
In the case of `O=[N+]([O-])c1ccc(Cc2nnc(O)c3ccccc23)cc1`, the IC50 result was “Not Active”. The value for `Nc1ccc(Cc2n[nH]c(=O)c3ccccc23)cc1` was “Not Active”; that for `CC(=O)Nc1ccc(Cc2n[nH]c(=O)c3ccccc23)cc1` was “Not Active”; that for `O=C(Nc1ccc(Cc2n[nH]c(=O)c3ccccc23)cc1)C(F)(F)F` was “Not Active”.

For `CS(=O)(=O)Nc1ccc(Cc2n[nH]c(=O)c3ccccc23)cc1`, the IC50 entry is “Not Active”. To `CCN(CC)c1ccc(Cc2n[nH]c(=O)c3ccccc23)cc1` belongs “Not Active”. The value for `CCNc1ccc(Cc2n[nH]c(=O)c3ccccc23)cc1` was “Not Active”; that for `CN(C)c1ccc(Cc2n[nH]c(=O)c3ccccc23)cc1` was “Not Active”. The value for `CNc1ccc(Cc2n[nH]c(=O)c3ccccc23)cc1` was “Not Active”; that for `O=C(O)c1ccccc1Cc1n[nH]c(=O)c2ccccc12` was “Not Active”.

Turning to `CC(=O)Nc1ccccc1Cc1n[nH]c(=O)c2ccccc12`, the IC50 entry is “Not Active”. To `CS(=O)(=O)Nc1ccccc1Cc1n[nH]c(=O)c2ccccc12` belongs “Not Active”.
